Assay [1] addresses T1, hFASN enzyme (full length) (Homo sapiens, UniProt P49327).
T1 construct: 10 μL hFASN enzyme (full length, 300 ng, purified in house); made in house
In words: Fatty Acid Synthase (FASN) Inhibition Scintillation Proximity Assay. The conditions noted are these: for IC50: mean where tested more than once, ~ = standard error of pIC50 larger than 0.5; for inhibition at 10 µM: read-out: FASN % Effect @1E−05M. Format: biochemical. Summed up: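 Purified full-length human FASN (300 ng) incubated 60 min at room temperature with NADPH, [3H]-acetyl-CoA and malonyl-CoA in 100 mM KH2PO4 pH 7.5, 1 mM DTT; compound at 30 μM to 0.01 μM. [3H]-palmitate captured by SPA imaging beads; IC50 from 4-parameter fit, reported as pIC50.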

In assay [2] the test system is A2780 ovarian cells. Put plainly: A2780 Ovarian Cell Proliferation Assay in Lipid Reduced Medium, with Palmitate (control). The conditions noted are these: Homo sapiens, A2780; lipid reduced medium, 25 μM palmitate, 96 h, MTT; read-out: Proliferation A2780 with Palmitate pIC50 (converted). Format: cell-based. The procedure: (§1) The biological assays described below correspond to comparative assays for ovarian cell proliferation. […] Compounds active in the absence of palmitate would not be expected to be active in the control.
(§2) 2500 cells were seeded in a 96-well clear well plate in 200 μL RPMI1640 with 10% Fetal Calf Serum (Hyclone), and incubated at 37° C., 5% CO2. Blanks were wells without cells. The next day the culture medium was aspirated and replaced by 160 μL culture medium with 10% Lipid-Reduced Serum (LRS, Hyclone). 20 μL test compound (at concentrations of 30 μM, 10 μM, 3 μM, 1 μM, 0.30 μM, 0.10 μM, 0.03 μM and 0.01 μM)/DMSO dilution followed by 20 μL palmitate-BSA solution were added to a final concentrations of 0.2% DMSO, 25 μM palmitate (Sigma, P0500, 10 mM stock solution in ethanol) 0.2% fatty-acid-free BSA, 0.25% ethanol. After 96 h incubation, an MTT assay was performed. The absorbance was measured at 544 nm on a SPECTRAMAX.
A best fit curve was fitted by a minimum sum of squares method, plotting Controlmin versus test compound concentration. From the plot, an IC50 (concentration at which 50% inhibition is achieved) was calculated. pIC50 values, presented in the Table below, were calculated as −log(IC50).
(§3) Representative compounds of the present invention were tested according to the procedure as described in Biological Example 3 above, with results as listed in Table BIO-3, below.

In assay [3] the target is T2, FASN Keto-reductase Domain (Homo sapiens, UniProt P49327).
T2 construct: 10 μL hFASN enzyme (full length, 300 ng, purified in house) and 360 μM NADPH; made in house
Put plainly: Fatty Acid Synthase Keto-Reductase Domain (FASN KR) Inhibition. It counts as biochemical. As to conditions: mean where tested more than once; read-out: FASN K-R Domain pIC50 (converted). The method, boiled down: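 Full-length human FASN (300 ng) in 100 mM KH2PO4 pH 7.5 with 360 μM NADPH and 180 mM ethyl acetoacetate (stock); A340 decrease read over 20 min at room temperature.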

Assay [4] relates to A2780 ovarian cells. In words: A2780 Ovarian Cell Proliferation Assay in Lipid Reduced Medium, without Palmitate. It counts as cell-based. The conditions noted are these: Homo sapiens, A2780; lipid reduced medium, without palmitate, 96 h, MTT; read-out: Proliferation A2780 w/o Palmitate pIC50 (converted). On the procedure: as §1
as §2, with “ethanol-BSA” for “palmitate-BSA”, “DMSO,” for “DMSO, 25 μM palmitate (Sigma, P0500, 10 mM stock solution in ethanol)”, “incubation” for “incubation,”
Raw data generated by the instrument were normalized to % Controlmin values, which were calculated as: % Controlmin=100*(x−mLC)/(mHC−mLC)
where mLC and mHC were the means of the low control wells and high control wells on the plate, after manual exclusion of outliers. A plot of Controlmin versus test compound concentration was fitted to a 4-parameter logistic curve using a non-linear least squares regression method. From the plot, an IC50 (concentration at which 50% inhibition is achieved) was calculated. pIC50 values were calculated as −log(IC50), when IC50 is expressed in molar units.
as §3

T1 sequence (P49327 whole entry): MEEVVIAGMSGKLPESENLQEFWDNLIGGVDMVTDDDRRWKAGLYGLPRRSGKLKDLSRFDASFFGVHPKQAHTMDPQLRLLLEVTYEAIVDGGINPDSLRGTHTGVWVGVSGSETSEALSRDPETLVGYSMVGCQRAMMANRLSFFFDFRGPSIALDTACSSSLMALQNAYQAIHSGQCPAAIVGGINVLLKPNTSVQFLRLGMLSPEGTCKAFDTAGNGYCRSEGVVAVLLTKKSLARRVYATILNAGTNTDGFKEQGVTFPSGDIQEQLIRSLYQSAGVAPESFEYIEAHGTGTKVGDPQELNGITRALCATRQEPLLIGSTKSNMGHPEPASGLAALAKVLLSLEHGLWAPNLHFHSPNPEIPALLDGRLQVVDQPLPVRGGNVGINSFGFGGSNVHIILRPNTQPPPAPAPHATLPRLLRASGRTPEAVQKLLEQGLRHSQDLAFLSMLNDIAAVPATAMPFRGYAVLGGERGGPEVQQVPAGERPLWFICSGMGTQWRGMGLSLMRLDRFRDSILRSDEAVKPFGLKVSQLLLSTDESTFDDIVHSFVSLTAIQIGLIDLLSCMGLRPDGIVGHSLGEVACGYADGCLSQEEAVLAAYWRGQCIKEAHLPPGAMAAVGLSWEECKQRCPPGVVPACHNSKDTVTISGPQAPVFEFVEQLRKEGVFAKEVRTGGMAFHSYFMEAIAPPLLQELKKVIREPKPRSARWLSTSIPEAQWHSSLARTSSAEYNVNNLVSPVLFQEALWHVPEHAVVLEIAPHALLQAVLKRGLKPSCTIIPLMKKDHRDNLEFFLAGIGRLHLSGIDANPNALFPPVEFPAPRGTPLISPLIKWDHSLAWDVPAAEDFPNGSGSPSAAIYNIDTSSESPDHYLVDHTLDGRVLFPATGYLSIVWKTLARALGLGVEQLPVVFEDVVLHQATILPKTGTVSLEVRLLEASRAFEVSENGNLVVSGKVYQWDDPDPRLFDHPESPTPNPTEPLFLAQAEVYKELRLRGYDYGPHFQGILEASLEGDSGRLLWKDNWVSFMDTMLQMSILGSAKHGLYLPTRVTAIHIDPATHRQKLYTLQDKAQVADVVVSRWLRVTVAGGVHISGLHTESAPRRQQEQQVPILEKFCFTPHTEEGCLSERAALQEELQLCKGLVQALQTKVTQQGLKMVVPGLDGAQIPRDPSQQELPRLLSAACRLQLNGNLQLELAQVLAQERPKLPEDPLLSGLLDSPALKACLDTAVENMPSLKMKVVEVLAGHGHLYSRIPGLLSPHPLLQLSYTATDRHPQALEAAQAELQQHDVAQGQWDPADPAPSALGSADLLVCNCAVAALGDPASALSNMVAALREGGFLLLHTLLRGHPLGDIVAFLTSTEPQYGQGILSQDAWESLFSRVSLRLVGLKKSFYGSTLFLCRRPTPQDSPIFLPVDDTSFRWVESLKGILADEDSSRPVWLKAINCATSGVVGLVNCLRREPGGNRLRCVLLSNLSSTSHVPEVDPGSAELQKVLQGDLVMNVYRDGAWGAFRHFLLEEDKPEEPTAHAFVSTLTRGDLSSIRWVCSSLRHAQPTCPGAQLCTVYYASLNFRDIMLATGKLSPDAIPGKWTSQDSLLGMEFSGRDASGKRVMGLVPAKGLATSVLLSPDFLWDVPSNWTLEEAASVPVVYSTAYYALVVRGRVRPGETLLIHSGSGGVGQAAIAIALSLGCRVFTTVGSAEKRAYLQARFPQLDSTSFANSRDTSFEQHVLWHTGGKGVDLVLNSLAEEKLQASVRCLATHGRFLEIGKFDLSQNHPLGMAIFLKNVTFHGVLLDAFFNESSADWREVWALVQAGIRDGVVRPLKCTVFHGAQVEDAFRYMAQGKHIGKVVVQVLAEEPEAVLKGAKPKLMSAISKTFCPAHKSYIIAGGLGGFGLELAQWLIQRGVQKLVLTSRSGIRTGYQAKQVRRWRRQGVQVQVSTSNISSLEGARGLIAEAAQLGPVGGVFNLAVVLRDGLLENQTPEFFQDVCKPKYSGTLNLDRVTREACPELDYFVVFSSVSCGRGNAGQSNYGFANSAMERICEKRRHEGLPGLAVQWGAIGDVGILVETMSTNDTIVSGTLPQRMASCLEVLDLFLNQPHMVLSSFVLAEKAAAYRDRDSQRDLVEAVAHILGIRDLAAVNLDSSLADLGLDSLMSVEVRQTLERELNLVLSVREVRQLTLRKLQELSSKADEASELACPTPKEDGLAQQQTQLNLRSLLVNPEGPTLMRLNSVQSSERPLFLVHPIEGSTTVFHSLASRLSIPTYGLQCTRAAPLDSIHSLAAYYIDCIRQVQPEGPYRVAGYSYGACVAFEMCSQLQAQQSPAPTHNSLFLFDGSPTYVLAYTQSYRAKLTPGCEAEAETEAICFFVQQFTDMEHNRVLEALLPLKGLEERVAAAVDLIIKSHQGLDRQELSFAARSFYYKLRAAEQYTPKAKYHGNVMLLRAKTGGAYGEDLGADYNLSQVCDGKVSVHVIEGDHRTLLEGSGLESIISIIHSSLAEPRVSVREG
T2 sequence (P49327 whole entry, the tested form may be a part): as the sequence (P49327 whole entry) above

Take `Cc1ccc(C(=O)N2CCC(c3ccc4c(c3)NC(=O)CC4)CC2)cc1NC(=O)c1ccc(NC(C)C)nc1` [Compound 35, 6-(isopropylamino)-N-(2-methyl-5-(4-(2-oxo-1,2,3,4-tetrahydroquinolin-7-yl)piperidine-1-carbonyl)phenyl)nicotinamide]: the IC50 in assay [1] is 437 nM; with A2780 ovarian cells [2] it was approximately 8910 nM; in assay [3], 794 nM; with A2780 ovarian cells [4] it was 676 nM. In addition, the inhibition at 10 µM in assay [1] was found to be 99%.

With `Cc1ccc(C(=O)N2CCC(c3ccc4ccncc4c3)CC2)cc1NC(=O)c1ccc(Cl)nc1` [Compound 37, 6-chloro-N-(5-(4-(isoquinolin-7-yl)piperidine-1-carbonyl)-2-methylphenyl)nicotinamide], the IC50 in assay [1] was 537 nM; with A2780 ovarian cells [2] it was 3390 nM; in assay [3] it was 562 nM; with A2780 ovarian cells [4], 617 nM. Besides, in assay [1], the inhibition at 10 µM is 94%.

As for `Cc1ccc(C(=O)N2CC(c3ccc(-c4ccnc5ccccc45)cc3)C2)cc1NC(=O)c1ccc(NC(C)C)nc1` [Compound 39, 6-(isopropylamino)-N-(2-methyl-5-(3-(4-(Quinolin-4-yl)phenyl)azetidine-1-carbonyl)phenyl)nicotinamide], the IC50 in assay [1] was 30.2 nM; in the assay on A2780 ovarian cells [2], 5500 nM; in assay [3] it was 16.6 nM; with A2780 ovarian cells [4], 33.9 nM. Also, in assay [1], the inhibition at 10 µM is 111%.

As for `Cc1ccc(C(=O)N2CCC(c3ccc(-c4cn[nH]c4)cc3)CC2)cc1NC(=O)c1ccc(NC(C)C)nc1` [Compound 42, N-(5-(4-(4-(1H-pyrazol-4-yl)phenyl)piperidine-1-carbonyl)-2-methylphenyl)-6-(isopropylamino)nicotinamide], the IC50 in assay [1] was 21.4 nM; with A2780 ovarian cells [2] it was more than 10000 nM; in assay [3] it was 34.7 nM; with A2780 ovarian cells [4], 102 nM. Also, the inhibition at 10 µM in assay [1] was determined as 106%.

In the case of `Cc1ccc(C(=O)N2CCC(c3ccc(-c4ccnn4C)cc3)CC2)cc1NC(=O)c1ccc(NC(C)C)nc1` [Compound 44, 6-(Isopropylamino)-N-(2-methyl-5-(4-(4-(1-methyl-1H-pyrazol-5-yl)phenyl)piperidine-1-carbonyl)phenyl)nicotinamide], the IC50 in assay [1] was 61.7 nM; with A2780 ovarian cells [2] it was more than 10000 nM; in assay [3], 89.1 nM; in the assay on A2780 ovarian cells [4] it was 155 nM. Also, in assay [1], the inhibition at 10 µM was found to be 102%.

Turning to `Cc1ccc(C(=O)N2CCC(c3ccc4[nH]c(=O)sc4c3)CC2)cc1NC(=O)c1ccc(Cl)nc1` [Compound 48, 6-chloro-N-(2-methyl-5-(4-(2-oxo-2,3-dihydrobenzo[d]thiazol-6-yl)piperidine-1-carbonyl)phenyl)nicotinamide], the IC50 is 269 nM in assay [1], more than 10000 nM in the assay with A2780 ovarian cells [2], 457 nM in assay [3] and 1410 nM with A2780 ovarian cells [4]. Moreover, in assay [1], the inhibition at 10 µM came to 92%.

For `Cc1ccc(C(=O)N2CCC(c3ccc4[nH]c(=O)sc4c3)CC2)cc1NC(=O)c1ccc(NC(C)C)nc1` [Compound 49, 6-(isopropylamino)-N-(2-methyl-5-(4-(2-oxo-2,3-dihydrobenzo[d]thiazol-6-yl)piperidine-1-carbonyl)phenyl)nicotinamide], the IC50 in assay [1] was 120 nM; in the assay on A2780 ovarian cells [2], more than 10000 nM; in assay [3] it was 229 nM; in the assay with A2780 ovarian cells [4] it was 813 nM. Moreover, the inhibition at 10 µM in assay [1] came to 97%.

For `Cc1ccc(C(=O)N2CCC(c3ccc4c(c3)CC(=O)N4)CC2)cc1NC(=O)c1ccc(Cl)nc1` [Compound 50, 6-chloro-N-(2-methyl-5-(4-(2-oxoindolin-5-yl)piperidine-1-carbonyl)phenyl)nicotinamide], the IC50 was 309 nM in assay [1], more than 10000 nM with A2780 ovarian cells [2], 603 nM in assay [3] and 1230 nM in the assay with A2780 ovarian cells [4]. Moreover, in assay [1], the inhibition at 10 µM was 93%.

Turning to `Cc1ccc(C(=O)N2CCC(c3ccc(-c4cnoc4)cc3)CC2)cc1NC(=O)c1ccc(NC(C)C)nc1` [Compound 51, 6-(isopropylamino)-N-(5-(4-(4-(isoxazol-4-yl)phenyl)piperidine-1-carbonyl)-2-methylphenyl)nicotinamide], the IC50 in assay [1] is 14.8 nM; in the assay on A2780 ovarian cells [2], 1700 nM; in assay [3] it was 25.1 nM; in the assay on A2780 ovarian cells [4] it was approximately 33.9 nM. Besides, the inhibition at 10 µM in assay [1] is 110%.

Regarding `Cc1ccc(C(=O)N2CC(c3ccc(-c4ccnn4C)cc3)C2)cc1NC(=O)c1ccc2ccccc2n1` [Compound 55, N-(2-methyl-5-(3-(4-(1-methyl-1H-pyrazol-5-yl)phenyl)azetidine-1-carbonyl)phenyl)quinoline-2-carboxamide], the IC50 in assay [1] is 437 nM; with A2780 ovarian cells [2] it was approximately 85.1 nM; in assay [3], 513 nM; with A2780 ovarian cells [4] it was approximately 77.6 nM. The inhibition at 10 µM in assay [1] came out at 86%.

Take `Cc1ccc(C(=O)N2CC(c3ccc(-c4ccnn4C)cc3)C2)cc1NC(=O)c1cncc(Br)c1` [Compound 56, 5-bromo-N-(2-methyl-5-(3-(4-(1-methyl-1H-pyrazol-5-yl)phenyl)azetidine-1-carbonyl)phenyl)nicotinamide]: the IC50 in assay [1] is 309 nM; in the assay on A2780 ovarian cells [2] it was 912 nM; in assay [3], 457 nM; with A2780 ovarian cells [4] it was 437 nM. The inhibition at 10 µM in assay [1] turned out to be 95%.

Regarding `Cc1ccc(C(=O)N2CC(c3ccc(-c4ccnn4C)cc3)C2)cc1NC(=O)c1ccc(N2CCCCC2)nc1` [Compound 57, N-(2-methyl-5-(3-(4-(1-methyl-1H-pyrazol-5-yl)phenyl)azetidine-1-carbonyl)phenyl)-6-(piperidin-1-yl)nicotinamide], the IC50 is 25.1 nM in assay [1], 6310 nM in the assay with A2780 ovarian cells [2], 25.7 nM in assay [3] and 45.7 nM with A2780 ovarian cells [4]. Further, the inhibition at 10 µM in assay [1] amounted to 106%.

In the case of `Cc1ccc(C(=O)N2CC(c3ccc(-c4ccnn4C)cc3)C2)cc1NC(=O)c1ccc(N2CCOCC2)nc1` [Compound 58, N-(2-methyl-5-(3-(4-(1-methyl-1H-pyrazol-5-yl)phenyl)azetidine-1-carbonyl)phenyl)-6-morpholinonicotinamide], the IC50 was 11.2 nM in assay [1], 3720 nM in the assay with A2780 ovarian cells [2], 28.2 nM in assay [3] and 18.2 nM in the assay with A2780 ovarian cells [4]. The inhibition at 10 µM in assay [1] is 111%.

In the case of `Cc1ccc(C(=O)N2CC(c3ccc(-c4ccnn4C)cc3)C2)cc1NC(=O)c1ccc(N2CCN(C)CC2)nc1` [Compound 59, N-(2-methyl-5-(3-(4-(1-methyl-1H-pyrazol-5-yl)phenyl)azetidine-1-carbonyl)phenyl)-6-(4-methylpiperazin-1-yl)nicotinamide], the IC50 in assay [1] was 56.2 nM; in the assay on A2780 ovarian cells [2] it was 7240 nM; in assay [3], 115 nM; with A2780 ovarian cells [4], 93.3 nM. Also, the inhibition at 10 µM in assay [1] stood at 103%.

Consider `Cc1ccc(C(=O)N2CC(c3ccc(-c4ccnn4C)cc3)C2)cc1NC(=O)c1ccc(N(C)C(C)C)nc1` [Compound 60, 6-(isopropyl(methyl)amino)-N-(2-methyl-5-(3-(4-(1-methyl-1H-pyrazol-5-yl)phenyl)azetidine-1-carbonyl)phenyl)nicotinamide], for which the IC50 in assay [1] was 19.5 nM; in the assay on A2780 ovarian cells [2], 2750 nM; in assay [3], 28.8 nM; in the assay with A2780 ovarian cells [4], 51.3 nM. In assay [1], the inhibition at 10 µM worked out at 103%.

Source of the values: patent publication US9562035B2, “Benzamide derivative useful as FASN inhibitors for the treatment of cancer” (Janssen Pharmaceutica NV, priority 2013, dated 2017).
